Assay results: patent US20080008999A1, “Process for detecting the existence of mesenchymal chrondrosarcoma” (priority 2004, published 2008)
Counter-ions that a name gives are not always drawn.

How the values were obtained:
[1] = system: K562 tumor cells; assay: KOR assay, optical density versus time of cell cultures (FIG. 13); assay type: cell-based
Text: Referring again to FIG. 6, and in the preferred embodiment depicted therein, a 96 well microtiter dish 310 is preferably used, and a light source 312 shines light through the samples disposed in such dish. The light source preferably provides light with a wavelength of from 200 about 800 nanometers. In one embodiment, the wavelength provided by the light source is from about 300 to about 700 nanometers. In yet another embodiment, the wavelength provided by the light source is from about 340 to about 660 nanometers.
Referring again to FIG. 6, and in the preferred embodiment depicted therein, the transmittance values measured by sensor 314 may be converted into optical density values in accordance with the formula: Dw=-log10Tw, wherein Tw is the measured transmittance of the sample measured at the specified wavelength (w) of the light used, and Dw is the optical density of the sample at the specified wavelength of the light used.
Thus, applicant's process allows one to measure the true optical density of a sample rather than mere absorbance. Once such optical density has been measured, one can then plot optical density versus time (as illustrated in the Figures of U.S. Pat. No. 6,258,553) and obtain a true rather than a distorted indication of cell apoptosis. […]

[2] = system: epithelial carcinoma cells; assay: exposure of cells to radiolabeled lineage specific hormones (FIG. 19); assay type: cell-based
Text: FIG. 19 is a representation of the results of exposing cells to various lineage specific hormones. […] Reference may be had to U.S. Pat. No. 6,565,827 (radioimmunotherapy of lymphoma using anti-CD20 antibodies), U.S. Pat. No. 6,287,537 (radioimmunotherapy of lymphoma using anti-CD20 antibodies), U.S. Pat. No. 6,015,542 (radioimmunotherapy of lymphoma using anti-CD20 antibodies), and U.S. Pat. No. 5,843,398 (radioimmunotherapy of lymphoma using anti-CD 20 antibodies). The entire disclosure of these United States patents are hereby incorporated by reference into this specification. […] In another embodiment (see graph 1300) epithelial cells, 1310, and ovarian cancer cells, 1320, are exposed to radiolabeled estrogen. Over 90 percent of the ovarian cancer cells are killed upon exposure to the radiolabeled estrogen but less than 30 percent of the epithelial carcinoma cells are killed upon exposure.

| Compound | slope of optical density versus time relative to control slope ([1]; K562 tumor cells derived from a patient with chronic myelogenous leukemia) | apoptosis peak in the KOR assay ([1]; optical density versus time) | epithelial carcinoma cells killed upon exposure [2] |
| --- | --- | --- | --- |
| Cc1ccc(NC(=O)c2ccc(CN3CCN(C)CC3)cc2)cc1Nc1nccc(-c2cccnc2)n1 [imatinib mesylate] | dose-dependent decrease in slope | do not produce |  |
| radiolabeled epithelial growth factor: radiolabeled ligand used to kill cells that possess receptors for the particular ligand (NSDSECPLSHDGYCLHDGVCMYIEALDKYACNCVVGYIGERCQYRDLKWWELR; Epidermal growth factor radiolabel; UniProt P01133 971-1023, looked up) |  |  | more than 50% |
